“And” between values parts separate entries of the source, which are not always exact repeats. Equal entries are not always repeated. Where two headings read alike, the source gives them in different places.
Legend:
PANC-1 cells = experiment: CellTiter-Glo luminescent cell viability assay, PANC-1; settings: for viability at 2.8 µM: read-out: Cell Viability (% of Control) 2.8 µM, PANC-1; for viability at 2.8 µM / viability at 8.3 µM / viability at 25 µM: mean ± SD, n = 2; for viability at 8.3 µM: read-out: Cell Viability (% of Control) 8.3 µM, PANC-1; for viability at 25 µM: read-out: Cell Viability (% of Control) 25 µM, PANC-1
PANC-1 and Fadu cells = experiment: CellTiter-Glo viability, statements covering both cancer cell lines; type: cell-based, human; settings: for viability at 25 µM: Homo sapiens, in either of the cancer cell lines, read-out: drop in viability at 25 µM
Fadu cells = experiment: CellTiter-Glo luminescent cell viability assay, Fadu; settings: for viability at 2.8 µM: read-out: Cell Viability (% of Control) 2.8 µM, Fadu; for viability at 2.8 µM / viability at 8.3 µM / viability at 25 µM: mean ± SD, n = 2; for viability at 8.3 µM: read-out: Cell Viability (% of Control) 8.3 µM, Fadu; for viability at 25 µM: read-out: Cell Viability (% of Control) 25 µM, Fadu
[1] = system: non-tumorous primary fibroblast cells; experiment: CellTiter-Glo luminescent cell viability assay, primary fibroblasts; settings: 72 h; for Primer fibroblast Cell viability (% of controll): dose–response, individual replicates
[2] = as above; settings: human, primary skin fibroblasts (non-tumorous), Primer fibroblast Cell viability (% of controll), 72 h, dose–response, individual replicates
[3] = Homo sapiens, PANC-1, 72 h, 72 h, first-set screening
[4] = Homo sapiens, FaDu, 72 h, 72 h, first-set screening
[5] = Homo sapiens, PANC-1, 72 h, 72 h, second-set screening
[6] = Homo sapiens, FaDu, 72 h, 72 h, second-set screening
[7] = 0.7 μM, 72 h, dose–response, individual replicates
[8] = 1 μM, 72 h, dose–response, individual replicates
[9] = 2.3 μM, 72 h, dose–response, individual replicates
[10] = 3.4 μM, 72 h, dose–response, individual replicates
[11] = 5.1 μM, 72 h, dose–response, individual replicates
[12] = 7.7 μM, 72 h, dose–response, individual replicates
[13] = 17.3 μM, 72 h, dose–response, individual replicates
[14] = 26 μM, 72 h, dose–response, individual replicates

## NCC#Cc1ccc(CN2C(=O)C3=C(CCN(Cc4cccc(-n5cc(-c6ccccc6)nn5)c4)C3)N3CCN=C23)cc1 [3b]
PANC-1 cells; [3]
  viability at 2.8 µM: 103 ± 8%
  viability at 8.3 µM: 84 ± 2%
  viability at 25 µM: 0%
PANC-1 and Fadu cells
  viability at 25 µM: 0 to 1%
Fadu cells; [4]
  viability at 2.8 µM: 103 ± 2%
  viability at 8.3 µM: 95 ± 3%
  viability at 25 µM: 22 ± 4%

## NCC#Cc1cccc(CN2C(=O)C3=C(CCN(Cc4ccc(-n5cc(-c6ccccc6)nn5)cc4)C3)N3CCN=C23)c1 [2b]
PANC-1 cells; [3]
  viability at 2.8 µM: 107 ± 1%
  viability at 8.3 µM: 0%
  viability at 25 µM: 0%
PANC-1 cells; [5]
  viability at 2.8 µM: 113 ± 3%
  viability at 8.3 µM: 0%
  viability at 25 µM: 0%
PANC-1 and Fadu cells; 8.3 µM, both PANC-1 and Fadu, first-set screening
  eradication of cancer cells at 8.3 µM: practically complete eradication of both types of cancer cells
PANC-1 and Fadu cells
  viability at 25 µM: 0 to 1%
Fadu cells; [4]
  viability at 2.8 µM: 102 ± 8%
  viability at 8.3 µM: 0%
  viability at 25 µM: 0%
Fadu cells; [6]
  viability at 2.8 µM: 117 ± 7%
  viability at 8.3 µM: 27 ± 12%
  viability at 25 µM: 0%

## CNCC#Cc1cccc(CN2C(=O)C3=C(CCN(Cc4ccc(-n5cc(-c6cc(F)cc(F)c6)nn5)cc4)C3)N3CCN=C23)c1 [43c]
PANC-1 cells; [7]
  PANC-1 Cell viability (% of controll): 110 % of controll and 102 % of controll
PANC-1 cells; [8]
  PANC-1 Cell viability (% of controll): 99 % of controll and 105 % of controll
PANC-1 cells; 1.5 μM, 72 h, dose–response, individual replicates
  PANC-1 Cell viability (% of controll): 103 % of controll
PANC-1 cells; [9]
  PANC-1 Cell viability (% of controll): 80 % of controll and 82 % of controll
PANC-1 cells; [10]
  PANC-1 Cell viability (% of controll): 5 % of controll and 8 % of controll
PANC-1 cells; [11]
  PANC-1 Cell viability (% of controll): 0 % of controll
PANC-1 cells; [12]
  PANC-1 Cell viability (% of controll): 0 % of controll
PANC-1 cells; [13]
  PANC-1 Cell viability (% of controll): 0 % of controll
PANC-1 cells; [14]
  PANC-1 Cell viability (% of controll): 0 % of controll
PANC-1 cells; Homo sapiens, PANC-1, 72 h, read-out: IC50 Value ± SEM PANC-1, 72 h treatment, best-fit values, n = 3
  IC50: 2.6 ± 0.03 µM
PANC-1 cells; Homo sapiens, PANC-1, 72 h, read-out: PANC-1 Cell viability (% of controll), 0.7 μM, 72 h, dose–response, individual replicates
  viability at 0.7 µM: 104%
PANC-1 cells; Homo sapiens, PANC-1, 72 h, read-out: PANC-1 Cell viability (% of controll), 1 μM, 72 h, dose–response, individual replicates
  viability at 1 µM: 104%
PANC-1 cells; Homo sapiens, PANC-1, 72 h, read-out: PANC-1 Cell viability (% of controll), 1.5 μM, 72 h, dose–response, individual replicates
  viability at 1.5 µM: 100%
PANC-1 cells; Homo sapiens, PANC-1, 72 h, read-out: PANC-1 Cell viability (% of controll), 2.3 μM, 72 h, dose–response, individual replicates
  viability at 2.3 µM: 89%
PANC-1 cells; Homo sapiens, PANC-1, 72 h, read-out: PANC-1 Cell viability (% of controll), 3.4 μM, 72 h, dose–response, individual replicates
  viability at 3.4 µM: 6%
PANC-1 cells; Homo sapiens, PANC-1, 72 h, read-out: PANC-1 Cell viability (% of controll), 5.1 μM, 72 h, dose–response, individual replicates
  viability at 5.1 µM: 0%
PANC-1 cells; Homo sapiens, PANC-1, 72 h, read-out: PANC-1 Cell viability (% of controll), 7.7 μM, 72 h, dose–response, individual replicates
  viability at 7.7 µM: 0%
PANC-1 cells; Homo sapiens, PANC-1, 72 h, read-out: PANC-1 Cell viability (% of controll), 17.3 μM, 72 h, dose–response, individual replicates
  viability at 17.3 µM: 0%
PANC-1 cells; Homo sapiens, PANC-1, 72 h, read-out: PANC-1 Cell viability (% of controll), 26 μM, 72 h, dose–response, individual replicates
  viability at 26 µM: 0%
PANC-1 cells; Homo sapiens, PANC-1, read-out: PANC-1 IC50 values, Mean, mean of independently fitted replicate IC50 values (Supplement S.6)
  IC50: 2.63 µM
PANC-1 cells; ratio of mean best-fit IC50 for primary fibroblasts and best-fit IC50 for PANC-1
  Selectivity Index (SI) Fibroblast/PANC-1: 1.4
[1]; 0.7 μM
  Primer fibroblast Cell viability (% of controll): 98 % of controll and 102 % of controll
[1]; 1 μM
  Primer fibroblast Cell viability (% of controll): 104 % of controll and 106 % of controll
[1]; 1.5 μM
  Primer fibroblast Cell viability (% of controll): 99 % of controll and 95 % of controll and 118 % of controll
[1]; 2.3 μM
  Primer fibroblast Cell viability (% of controll): 97 % of controll and 98 % of controll
[1]; 3.4 μM
  Primer fibroblast Cell viability (% of controll): 95 % of controll and 99 % of controll
[1]; 5.1 μM
  Primer fibroblast Cell viability (% of controll): 0 % of controll
[1]; 7.7 μM
  Primer fibroblast Cell viability (% of controll): 0 % of controll
[1]; 17.3 μM
  Primer fibroblast Cell viability (% of controll): 0 % of controll
[1]; 26 μM
  Primer fibroblast Cell viability (% of controll): 0 % of controll
[1]; Homo sapiens, Fibroblast, read-out: IC50 Value ± SEM Primary Fibroblast, 72 h treatment, best-fit values, n = 3
  IC50: 3.7 ± 1.73 µM
[2]; 0.7 μM
  viability at 72 h, 0.7 µM: 91%
[2]; 1 μM
  viability at 72 h, 1 µM: 92%
[2]; 2.3 μM
  viability at 72 h, 2.3 µM: 103%
[2]; 3.4 μM
  viability at 72 h, 3.4 µM: 80%
[2]; 5.1 μM
  viability at 72 h, 5.1 µM: 0%
[2]; 7.7 μM
  viability at 72 h, 7.7 µM: 0%
[2]; 17.3 μM
  viability at 72 h, 17.3 µM: 0%
[2]; 26 μM
  viability at 72 h, 26 µM: 0%
Fadu cells; [7]
  Fadu Cell viability (% of controll): 99 % of controll and 100 % of controll
Fadu cells; [8]
  Fadu Cell viability (% of controll): 102 % of controll and 93 % of controll
Fadu cells; [9]
  Fadu Cell viability (% of controll): 90 % of controll and 79 % of controll
Fadu cells; [10]
  Fadu Cell viability (% of controll): 79 % of controll and 59 % of controll and 42 % of controll
Fadu cells; [11]
  Fadu Cell viability (% of controll): 0 % of controll
Fadu cells; [12]
  Fadu Cell viability (% of controll): 0 % of controll
Fadu cells; [13]
  Fadu Cell viability (% of controll): 0 % of controll
Fadu cells; [14]
  Fadu Cell viability (% of controll): 0 % of controll
Fadu cells; Homo sapiens, FaDu, 72 h, read-out: Fadu Cell viability (% of controll), 0.7 μM, 72 h, dose–response, individual replicates
  viability at 0.7 µM: 94%
Fadu cells; Homo sapiens, FaDu, 72 h, read-out: Fadu Cell viability (% of controll), 1 μM, 72 h, dose–response, individual replicates
  viability at 1 µM: 97%
Fadu cells; Homo sapiens, FaDu, 72 h, read-out: Fadu Cell viability (% of controll), 1.5 μM, 72 h, dose–response, individual replicates
  viability at 1.5 µM: 90%
Fadu cells; Homo sapiens, FaDu, 72 h, read-out: Fadu Cell viability (% of controll), 2.3 μM, 72 h, dose–response, individual replicates
  viability at 2.3 µM: 89%
Fadu cells; Homo sapiens, FaDu, 72 h, read-out: Fadu Cell viability (% of controll), 5.1 μM, 72 h, dose–response, individual replicates
  viability at 5.1 µM: 0%
Fadu cells; Homo sapiens, FaDu, 72 h, read-out: Fadu Cell viability (% of controll), 7.7 μM, 72 h, dose–response, individual replicates
  viability at 7.7 µM: 0%
Fadu cells; Homo sapiens, FaDu, 72 h, read-out: Fadu Cell viability (% of controll), 17.3 μM, 72 h, dose–response, individual replicates
  viability at 17.3 µM: 0%
Fadu cells; Homo sapiens, FaDu, 72 h, read-out: Fadu Cell viability (% of controll), 26 μM, 72 h, dose–response, individual replicates
  viability at 26 µM: 0%
Fadu cells; Homo sapiens, FaDu, 72 h, read-out: IC50 Value ± SEM Fadu, 72 h treatment, best-fit values, n = 3
  IC50: 3.6 ± 0.09 µM
Fadu cells; Homo sapiens, FaDu, read-out: Fadu IC50 values, Mean, mean of independently fitted replicate IC50 values (Supplement S.6)
  IC50: 3.48 µM
Fadu cells; ratio of mean best-fit IC50 for primary fibroblasts and best-fit IC50 for Fadu
  Selectivity Index (SI) Fibroblast/Fadu: 1.0
